# Assay results: patent publication US6391549B1, “Monitoring gene expression” (Ramont University Authority for Applied Research & …, priority 1999, dated 2002)
# What was measured:
# [1] = tested on: E. coil k-12 7118 carrying pUC-PhoA plasmid (lacZ promoter-phoA); experiment: on-line amperometric monitoring of phoA product alkaline phosphatase under lacZ promoter in intact bacteria; format: cell-based, E. coli; conditions: IPTG 0, 0.1 mM and 1 mM, FIG. 10
# Excerpt: The expression of the enzyme AP was done by constructing a multicopy plasmid. For the construction of the plasmid, we coupled a promoter-less phoA gene to the promoter of the lacZ gene. The use of multicopy plasmid as a vector for induciable genes requires a strong repressing system to prevent constitutive expression. Therefore we used a plasmid that cares the lacI^q gene coding for a lacZ strong repressor. The plasmid was designed to generate the correct fusion between the lacZ promoter and the phoA gene. The bacteria carrying this plasmid can be immobilized and used to monitor AP by electrochemical measurements of it's activity. After the construction of the plasmid, we measured AP activity of a cell suspension in response to the appearance of IPTG.
# Strain E. coil k-12 7118[F′ lacI^qΔ(lacZ)M15 proA+B+/Δ(lac-proAB) thi supE]was used for all cloning procedures, plasmid propagation and production. AP production of cells carrying the pUC-PhoA plasmid was measured on-line by the electroanalytical technique that was used for β-galactosidase as described in example 2. As shown in FIG. 10 the enzymatic activity was determined following induction with elevated concentrations of IPTG (0, 1 mM and 0.1 mM).
# [2] = tested on: E. coli K10 cultures (lacZ expression); experiment: on-line amperometric monitoring of lacZ product β-galactosidase in intact bacteria after IPTG induction; format: cell-based
# Procedure: Bacterial strains and growth. E. coli K-12 strain K10 (Hfr, tonA22, ompF626, relA1, pit10, spoT1, T2^R CGSC [Coli Genetic Stot Center, New Haven, Conn.] 4234) was from the lab collection, Strains E. coli RO151 (MC4100 φ(csi-5::lacZ) and E. coli RH99 (RO151 rpoS359::Tn10) were described before (Weichart et. al., 1993). All cultures were grown aerobically at 37° C. with vigorous shaking in LB media (Miler, 1992), supplemented, when required, with 5 μg/ml of tetracycline or 25 μg/ml of kanamycin.
# An on-line electroanalytical assay for β-galactosidase was used where the enzymatic activity was determined following induction with IPTG. Increasing concentrations of the inducer were added to cultures of E. coli K10 (Annette & Anthony, 1987) and the current signal was monitored on-line in all the cultures simultaneously (FIG. 3A).
# [3] = tested on: heavy metal responsive promoter-lacZ fusion in E coli K12 MC4100; experiment: on-line monitoring of cadmium in soil samples with the reporter bacteria; format: cell-based
# Procedure: (§1) The on-line monitoring procedure was performed as followed:
# The same assay procedure was used to detect cadmium in soil samples. The soil was added directly to the screen-printed based electrochemical cells containing the bacteria culture as described above. Eight soil samples were monitored simultaneously by the system. The results as visualized on the computer screen are shown on FIG. 6A., Two duplicates of soil sample containing 3.8 PPM cadmium (measured by the Atomic absorption method) were compared with two duplicates of clean soil samples.
# [4] = tested on: heavy metal responsive promoter-lacZ fusion in E coli K12 MC4100; experiment: on-line amperometric monitoring of heavy metals with bacteria carrying heavy metal responsive promoter fused to lacZ; format: cell-based; conditions: CdCl2 5, 10 and 50 PPM added to culture, FIG. 5
# Procedure: An on-line electroanlytical assays for β-galactosidase was used to monitor on-line the presence of heavy metals. The expression of the reporter gene β-galactosidase that was fused to a heavy metal responsive gene was proportional to the heavy metal concentration. We were able to monitor eight different samples simultaneously using a disposable electrodes.
# as §1
# a. The bacteria culture was grown on LB medium to a density of 40 K.U.
# b. The culture was added to the multiple-cell device followed by the addition of the β-galactosidase substrate p-aminophenyl-b-D-galactopyranoside (PAPG).
# c. A potential of 220 mV Vs Ag/AgCl reference electrode was applied by the electrochemical measurement system and electroanalytical assay for β-galactosidase was carried out as described in Example 4.
# The current signal was monitored simultaneously in all the cultures.
# [5] = tested on: heavy metal responsive promoter-lacZ fusion in E coli K12 MC4100; conditions: HgCl2 10, 50, 100 and 500 PPM added to sea-water, FIG. 7
# Procedure: Electrochemical measurements was performed using a disposable three-electrode cell made of polystyrene tubes and based on a screen-printed electrode (total volume of 0.3 ml). The assay was performed directly in the electrochemical cells that was vibrated to achieve mixing. This system allows simultaneous measurements of eight samples using a potentiostat connected to 8 channel multiplexer. The electrical current, resulting in all 8 cultures, from the activity of β-galactosidase, was visualized in real time on the computer screen. The on-line monitoring procedure was performed as followed:
# The game procedure as described on Example 4 was used to monitor mercury in water and sea water samples.
# β-galactosidase = β-galactosidase (Escherichia coli, UniProt P00722); conditions: purified enzyme, PAPG substrate, 220 mV
# β-galactosidase, sequence (P00722 2-1024 limits assumed): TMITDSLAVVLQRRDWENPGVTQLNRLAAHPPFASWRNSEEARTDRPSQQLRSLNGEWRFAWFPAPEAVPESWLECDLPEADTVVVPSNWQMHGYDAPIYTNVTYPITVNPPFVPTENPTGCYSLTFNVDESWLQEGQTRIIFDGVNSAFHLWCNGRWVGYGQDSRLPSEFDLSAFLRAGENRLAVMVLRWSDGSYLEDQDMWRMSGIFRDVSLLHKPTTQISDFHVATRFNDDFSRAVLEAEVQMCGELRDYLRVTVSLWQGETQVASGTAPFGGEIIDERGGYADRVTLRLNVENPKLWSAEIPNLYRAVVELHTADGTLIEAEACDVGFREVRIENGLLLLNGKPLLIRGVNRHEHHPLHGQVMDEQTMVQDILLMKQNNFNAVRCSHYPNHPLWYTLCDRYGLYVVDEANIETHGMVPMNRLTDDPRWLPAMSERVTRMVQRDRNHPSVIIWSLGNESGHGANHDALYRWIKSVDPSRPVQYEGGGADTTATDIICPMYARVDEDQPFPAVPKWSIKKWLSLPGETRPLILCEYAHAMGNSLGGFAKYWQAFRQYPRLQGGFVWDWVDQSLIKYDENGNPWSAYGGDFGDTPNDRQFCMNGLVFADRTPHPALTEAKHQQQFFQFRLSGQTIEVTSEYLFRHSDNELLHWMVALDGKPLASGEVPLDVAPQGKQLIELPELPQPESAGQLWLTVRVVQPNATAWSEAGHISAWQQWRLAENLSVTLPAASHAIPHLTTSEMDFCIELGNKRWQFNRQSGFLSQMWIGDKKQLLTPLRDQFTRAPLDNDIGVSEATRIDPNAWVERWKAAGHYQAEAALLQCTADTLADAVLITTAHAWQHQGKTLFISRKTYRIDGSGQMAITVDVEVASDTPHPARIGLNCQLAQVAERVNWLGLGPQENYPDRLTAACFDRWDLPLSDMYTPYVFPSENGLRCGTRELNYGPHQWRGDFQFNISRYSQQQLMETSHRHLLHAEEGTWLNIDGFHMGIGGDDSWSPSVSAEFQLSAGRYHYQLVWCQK
# Procedure: The amperometric assay. Electrochemical measurements were performed using a disposable three-electrode cell, based on a screen-printed electrode (total volume of 0.3 ml). […] Graphite ink was used as the counter electrode and Ag/AgCl ink were the reference electrodes. Disposable graphite electrodes in cylindrical form (made from pencil leads, HB 0.9 mm) were used as the working electrodes. The assay was performed directly in the electrochemical cells which were vibrated to achieve mixing. The same screen-printed electrodes and graphite working electrode were also used for direct measurements in cultures. In this case the electrodes were placed inside the Erlenmeyer flask as shown in FIG. 1 and mixing was achieved by bubbling air. The graphite electrode was held at 220 mV versus the reference electrode and the substrate PAPG concentration was 0.4 mg/ml.
# The electrochemical measurements were performed using a PAR VersaStat potentiostat connected to 8 channel PAR 314 Model multiplexer (EG&C Princeton Applied Research, Princeton, N.J.). This system allows simultaneous measurements of eight samples with disposable electrochemical cells. The measurements were controlled by a LAbVIEW-based software using a Windows 95 operating system. […]
compound,measurement,setting,value
"CC(C)S[C@@H]1O[C@H](CO)[C@H](O)[C@H](O)[C@H]1O [IPTG, isopropyl-β-D-thiogalactopyranoside]",current signals (alkaline phosphatase activity after induction),[1],proportional to IPTG concentations
same,lowest IPTG concentration from which the slope was proportional,"[2]; E. coli K10, FIG. 3B",≥ 0.5 µM
same,slope of the current signals with time (β-galactosidase induction),"[2]; E. coli K10, IPTG 0.5-50 μM, FIG. 3B",proportional to the concentrations of IPTG added
"[Cl][Cd][Cl] [cadmium, CdCl2]",current signals versus clean soil samples,"[3]; soil sample containing 3.8 PPM cadmium, FIG. 6",substantially higher
same,lowest cadmium concentration detected in soil samples,"[3]; soil samples, average of several experiments, FIG. 6B",0.5 PPM
same,slope of the current signals with time (reporter induction),[4],proportional to the concentrations of cadmium added
HgCl2,current signal (reporter induction),[5],proportional to the mercury concentrations
β-D-galactoside galatohydrolase; EC 3.2.1.23 [β-galactosidase],detection limit,β-galactosidase,1 unit/ml
